For data set [1] the following is noted: in mice; cited from earlier work.
The subject of a further data set is tumor. The settings on record: in mice; cited from earlier work.
The next data set has as its system Ehrlich ascites cells. Kind of data set: Ehrlich Ascites tumor screen for antineoplastic activity. The format is in vivo. Particulars: 20 mg/kg/day intraperitoneally, days 1-9; CF male mice; day 10. How it is done:
Use of compounds according to this invention in Ehrlich Ascites tumor screens for antineoplastic activity has been investigated.
CF male mice (~25 g) were inoculated intraperitoneally on day 0 with 2×10^6 Ehrlich ascites cells. Compositions containing compounds of this invention were prepared in 0.05% polysorbate 80 by homogenation and injected intraperitoneally on days 1-9 at 20 mg/kg/day. On day 10, the mice were sacrificed and the cells from the peritoneal cavity harvested. The total ascites tumor and packed cell (ascrit) volumes were determined and used to calculate the percent inhibition according to the procedure described in C. Piantadosi et al., J. Pharm. Sci., 58, p. 821 (1969). […] Mercaptopurine and mephalan were used as positive controls in the screen. Other pharmaceutically acceptable carriers, diluents, adjuvants or dosages are readily ascertainable by the skilled artisan.

Another data set can be described thus: Toxicity in BALB/C mice. Type of data set: in vivo.
Data set [2] can be described thus: Tissue distribution study of boron (boron neutron capture therapy). Particulars: mouse, ip, 40 mg/kg, single saline i.p. injection, 40 μg boron per gram body weight; for concentration at 1 h: 1 hr post injection. Type of data set: in vivo, BALB/c mice. Here is the method: (§1) In a tissue distribution study relating to treatment of tumor tissue in an animal by boron neutron capture therapy, a representative compound of this invention MeNH2.BH2 C(O)NHEt was administered in a single saline intraperitoneal injection sufficient to provide 40 μg boron per gram body weight to BALB/c mice carrying Harding-Passey melanorna.

The test system of the next data set is Harding-Passey melanorna. Described as above. The format is in vivo, BALB/c mice. Particulars: for Boron uptake, blood / Boron uptake, brain / Boron uptake, tumor: single saline i.p. injection, 40 μg boron per gram body weight. How it is done: as §1
Data set [3] in a line: Thermal stability / vacuum distillation. Type of data set: physicochemical. The settings on record: for thermal stability: higher temperature (>100° C.); for decomposition when subjected to vacuum distillation: oil-bath temperatures >100° C. How it is done: The parent compound 1, trimethylamine-(ethylcarbamoyl)borane was prepared as previously described in B. F. Spielvogel et al., J. Am. Chem. Soc., 98 p. 5702 (1976) and I. H. Hall et al., J. Pharm. Sci., 68, p. 685 (1979) by refluxing (under dry N2) a solution of Me3 N.BH2 CN in CH2 Cl2 with 2 equivalents of triethyloxonium tetrafluoroborate for 24 hours. The compounds Me3 N.BH2 CN and triethyloxonium tetrafluoroborate are referred to in P. Wisian-Neilson et al., Inorg. Chem. 17, p. 2327 (1978) and H. Meerwein, Org. Synth., 46, p. 113 (1966), respectively. The resulting ethylnitrilium salt (not isolated) was hydrolyzed at 0° C. with 1N NaOH until basic and finally purified by vacuum distillation, giving a 75% yield. Dimethylamine-(ethylcarbamoyl)borane was made from 1 by a (CH3)2NH-exchange reaction in a pressure-glass vessel at room temperature for 8 days, and ca. 80% conversion (by ^1 H NMR) was obtained. Longer reaction periods (2-3 weeks) gave similar results. Amide 2 is readily purified by washing a CH2 Cl2 solution of the crude mixture with a small quantity of water whereby 1 is removed. The bulk CH2 Cl2 solution containing the product was dried, and rotary evaporation of the solvent gave 78% yield. Finally, the product was distilled under reduced pressure to get an analytical sample. […] The methylamine-(ethylcarbamoyl)borane and ammonia-(ethylcarbamoyl)borane were similarly prepared from 1 by exchange reactions with CH3 NH2 and NH3, respectively, in a glass pressure reaction vessel at room temperature for 1 week. The crude amide was purified by recrystallization from CH2 Cl2 /pentane, giving a 65% yield, whereas the ammonia analogue was recrystallized from distilled water, giving a 60% yield.

The conditions of data set [4]: animal model studies; cited from earlier work.
The conditions of data set [5]: animal model studies; cited from earlier work. This is another data set of the same source.
The mark [6] stands for this setting: 1 hr post injection, 40 mg/kg, 60 min.

The structures appear in SMILES notation. Read-outs that look alike come from different tables or passages of the source.

Consider `C[N+](C)(C)[BH2-]C(=O)O` [Me3 N.BH2 COOH], for which, in [1], the antihyperlipidemic activity entry is “significant”. For the same compound, the antitumor activity entry with tumor is listed as “significant”.

Consider `CCNC(=O)[BH2-][NH2+]C` [MeNH2.BH2 C(O)NHEt, Methylamine-(ethylcarbamoyl)borane], for which the “percent inhibition (ascites tumor and packed cell volumes)” value with Ehrlich ascites cells was 91%. The toxicity result in “Toxicity in BALB/C mice” is reported as “not toxic”. In addition, the concentration at 1 h in data set [2] (blood, read-out: Boron uptake, blood) was 54800 ng/g; in [2] (brain, read-out: Boron uptake, brain), 45300 ng/g; in [2] (tumor, read-out: Boron uptake, tumor), 51300 ng/g. Also, in [2] (tumor, 12 hr post injection, read-out: Boron uptake, tumor), the concentration at 12 h was 3800 ng/g. Besides, the “Boron uptake, blood” value in the data set with Harding-Passey melanorna (setting [6]) worked out at 54.4 μg B per gram tissue; in the data set on Harding-Passey melanorna (12 hr post injection) it was 0 μg B per gram tissue. Also, the “Boron uptake, brain” value stood at 39.8 μg B per gram tissue with Harding-Passey melanorna (setting [6]) and 0 μg B per gram tissue in the data set on Harding-Passey melanorna (12 hr post injection). Moreover, the “Boron uptake, tumor” value in the data set with Harding-Passey melanorna (setting [6]) is 48.7 μg B per gram tissue; in the data set on Harding-Passey melanorna (12 hr post injection, 40 mg/kg, 720 min), 2.8 μg B per gram tissue. The “uptake for conventional therapy, measured against the standard in clinical use Na2 B12 H11 SH” value in the data set with Harding-Passey melanorna (in words) is reported as “inadequate”. Further, in the data set with Harding-Passey melanorna (in words, BALB/c mice), the “concentration of the boron-containing compound in the tumor tissue” value is listed as “some preferential differential concentration”. For the same compound, the solubility result in “Solubility” is “good”.

For `CCNC(=O)[BH2-][NH+](C)C` [Me2 NH.BH2 C(O)NHEt, Dimethylamine-(Ethylcarbamoyl)borane], in the data set on Ehrlich ascites cells, the “percent inhibition (ascites tumor and packed cell volumes)” value came out at 72.2%. In data set [3], the thermal stability entry is “thermally unstable” and the “decomposition when subjected to vacuum distillation” value is given as “considerable decomposition”.

For `CCNC(=O)[BH2-][N+](C)(C)C` [Trimethylamine-(ethylcarbamoyl)borane, Trimethylamine-(Ethylcarbamoyl)borane], the antiarthritic activity entry in data set [4] is given as “significant”. For the same compound, the antihyperlipidemic activity entry in [1] is listed as “significant”. In [3], the thermal stability result is “thermally unstable” and the “decomposition when subjected to vacuum distillation” value is on record as “considerable decomposition”. Also, the antitumor activity entry with tumor was “significant”. Further, the antiinflammatory activity entry in data set [5] is on record as “significant”.
